Laboratory results published in BindingDB's records for patent US12473263 (Icahn School Of Medicine At Mount Sinai, 2025).

Target: T1, Bromodomain-containing protein 4 [58-164] (Homo sapiens, UniProt O60885)
T1 construct: 58-164
Assay: Fluorescence Anisotropy Binding Assay
Description: Binding affinity of the newly synthesized compounds to the BRD4 BrD1 was assessed in a fluorescence anisotropy assay using a fluorescein isothiocyanate (FITC)-labeled MS417 as an assay probe (Zhang et al. 2008 op.cit.). Competition binding was performed with a BrD protein (0.25 to 1 μM) and the fluorescent probe (80 nM), and increasing concentration of unlabeled competing ligand in a PBS buffer (pH 7.4) in total volume of 80 μL. Measurements were obtained after 1 hour incubation of the fluorescent ligand and the protein at 25° C. with Safire 2 microplate reader (Tecan). In the assay, fluorescent ligand concentration was ≤2Kd, and protein concentration was set at which 50-80% of fluorescent ligand is bound. Dissociation constant of a competing ligand was calculated with the correction to Cheng-Prussoff equation introduced by Nicolovska-Coleska and colleagues [Nikolovska-Coleska, Z. et al., Anal Biochem 332, 261-273 (2004).

SMILES	Kd
COc1ccc2c(c1)n(Cc1ccccc1C)c(=N)n2CC(O)c1ccc(Cl)c(Cl)c1 (stereo unspecified) [US12473263, Example 1]	694 nM
Cc1ccccc1Cn1c(=N)n(CC(O)c2ccc(Cl)c(Cl)c2)c2ccc(F)cc21 (stereo unspecified) [US12473263, Example 2]	269 nM
Cc1ccccc1Cn1c(=N)n(CC(O)c2ccc(Cl)c(Cl)c2)c2ccc(Cl)cc21 (stereo unspecified) [US12473263, Example 3]	503 nM
Cc1ccccc1Cc1cn(C[C@H](O)c2ccc(Cl)c(Cl)c2)c2ccccc12 [US12473263, Example 4]	640 nM
N=c1n(Cc2cn(-c3ccccc3)nn2)c2ccccc2n1CC(O)c1ccc(Cl)c(Cl)c1 (stereo unspecified) [US12473263, Example 13]	65 nM

Other lines, results leading:

Kd	SMILES
551 nM	Cc1ccccc1Cn1cc(Cn2c(=N)n(CC(O)c3ccc(Cl)c(Cl)c3)c3ccccc32)nn1 (stereo unspecified) [US12473263, Example 7]
556 nM	Cc1cccc(Cn2cc(Cn3c(=N)n(CC(O)c4ccc(Cl)c(Cl)c4)c4ccccc43)nn2)c1 (stereo unspecified) [US12473263, Example 8]
371 nM	N=c1n(Cc2cn(Cc3ccccc3F)nn2)c2ccccc2n1CC(O)c1ccc(Cl)c(Cl)c1 (stereo unspecified) [US12473263, Example 10]
548 nM	N=c1n(Cc2cn(Cc3cccc(F)c3)nn2)c2ccccc2n1CC(O)c1ccc(Cl)c(Cl)c1 (stereo unspecified) [US12473263, Example 11]
3860 nM	N=c1n(Cc2cn(Cc3ccc(F)cc3)nn2)c2ccccc2n1CC(O)c1ccc(Cl)c(Cl)c1 (stereo unspecified) [US12473263, Example 12]
354 nM	N=c1n(Cc2cn(CCc3ccccc3)nn2)c2ccccc2n1CC(O)c1ccc(Cl)c(Cl)c1 (stereo unspecified) [US12473263, Example 15]
